“Also recorded” adds a separate entry of the source. Bridge positions count the residues as written; N and C are the ends. Square brackets hold non-standard residues; d marks the D form. Peptide text beside a SMILES is read from it. R8 = C=CCCCCCC[C@@](C)(N)C(=O)O; S5 = C=CCCC[C@](C)(N)C(=O)O

The record followed here is US20230391828A1, “REGULATORS OF CELL DIVISION” (TECHNISCHE UNIVERSITÄT DRESDEN, priority 2020, published 2023).

In test [1] the target is T1, APC/C (Homo sapiens, UniProt Q9NYG5).
T1 construct: made in house; host or cells: SF9 insect cells (baculovirus)
Nature of the test: In vitro APC/C ubiquitination assay with different E2 enzymes (UBE2C, UBE2D, UBE2S), Ub-cyclin B1 substrate. The class given is biochemical. To be noted: 100 μM, reaction time 40 min. The procedure:
(§1) Proteins were separated by SDS-PAGE electrophoresis using precast Bolt 4-12% Bis-Tris Plus protein gels (Thermo Fisher Scientific) and Criterion XT Bis-Tris Midi Protein Gels (Bio-Rad). In different experiments, various conditions were used: in vitro APC/C ubiquitination assays—165 V, 40 min, SDS-MES running buffer (50 mM MES, 50 mM Tris base, 0.1% SDS, 1 mM EDTA, pH 7.3; Thermo Fisher Scientific); in vitro APC/C ubiquitination assays determining KM—165V, 1 h, SDS-MOPS running buffer (50 mM MOPS, 50 mM Tris base, 0.1% SDS, 1 mM EDTA, pH 7.7; Thermo Fisher Scientific); pull-down binding assay—165 V, 35 min, SDS-MES running buffer.
APC/C-dependent ubiquitination reactions were performed at 30° C. in 30 mM HEPES pH 7.4, 175 mM NaCl, 8 mM MgCl2, 0.05% Tween-20, 1 mM DTT and 5% glycerol and contained 20 nM recombinant APC/C (note, for testing the first generation of inhibitors, APC/C and Cdc20 immunoprecipitated from mitotic HeLa K cells was used), 340 nM Cdc20, 46 nM GST-UBA1, 340 nM UBE2C (alternatively 400 nM UBE2D1, 280 nM UBE2S), 21 μM His6-ubiquitin or if it is indicated 21 μM methylated-ubiquitin (BostonBiochem), 2.6 mM ATP, 10 mM phosphocreatine and 11 μM creatine kinase. […] Detection of fluorescently labelled substrates was done by quantitative near-infrared scanning system Odyssey.

Test [2] concerns the target T1, APC/C. As to the kind of experiment: In vitro APC/C ubiquitination assay driven by the E2 enzyme UBE2C, fluorophore-labelled securin substrate. The class given is biochemical. As for the experimental part:
as §1
APC/C-dependent ubiquitination reactions were performed at 30° C. in 30 mM HEPES pH 7.4, 175 mM NaCl, 8 mM MgCl2, 0.05% Tween-20, 1 mM DTT and 5% glycerol and contained 20 nM recombinant APC/C (note, for testing the first generation of inhibitors, APC/C and Cdc20 immunoprecipitated from mitotic HeLa K cells was used), 340 nM Cdc20, 46 nM GST-UBA1, 340 nM UBE2C (alternatively 400 nM UBE2D1, 280 nM UBE2S), 21 μM His6-ubiquitin or if it is indicated 21 μM methylated-ubiquitin (BostonBiochem), 2.6 mM ATP, 10 mM phosphocreatine and 11 μM creatine kinase. As substrates, 35 nM fluorophore-labeled ubiquitin-cyclin B and 50 nM fluorophore-labeled securin were standardly used (fluorophore IRDye 800CW (LI-COR) was used for labelling). In case of KM and kcat determination, 50, 100, 250, 500, 750, 1000, 1250, 2500 and 5000 nM fluorophore-labelled securin was used. The reaction was done in the volume of 15 μl, it was quenched after the indicated time with LDS sample buffer (Thermo Fisher Scientific) supplemented with 100 mM DTT and subjected to SDS-PAGE. Detection of fluorescently labelled substrates was done by quantitative near-infrared scanning system Odyssey.

The next test concerns the target T2, APC/C (APC11) (Homo sapiens, UniProt Q9NYG5).
T2 construct: endogenous in cells; host or cells: HeLa K cell extract
As to the kind of experiment: Pull-down binding assay in HeLa K cell extract, APC/C. As to conditions: Pra peptide clicked to azide agarose or magnetic beads, Western blot. The procedure:
For the protein transfer, the 0.45 μm Immobilon-FL PVDF membrane (Merck Millipore) was used. The membrane was activated in ethanol and then transferred to the Blotting buffer (50 mM SDS-MOPS, 50 mM Tris base, 0.1% SDS, 1 mM EDTA, 20% EtOH). The proteins were transferred using a wet transfer for 1.5 h at 400 mA. Subsequently, the membrane was incubated with the blocking solution, 10% milk in PBS-T (0.02% Tween-20 in PBS), for 1 h at room temperature. To detect proteins of the interest, the membrane was incubated with primary antibodies overnight at 4° C. Followed by washing the membrane 3 times 10 min with PBS-T and incubation with IRDye fluorescently labelled secondary antibodies for 1 h. Prior detection, the membrane was twice washed with PBS-T for 10 min and once with PBS for 10 min. The detection was done using the quantitative near-infrared scanning system Odyssey (LI-COR Biosciences).
HeLa K cell pellet was re-suspended in the extraction buffer (30 mM HEPES pH 7.5, 175 mM NaCl, 2.5 mM MgCl2, 0.25% NP40, 10% glycerol, 1 mM DTT) supplemented with 10 μM MG132 (VWR), 1 mM PMSF (Sigma-Aldrich), complete protease inhibitor cocktail (Roche) and PhosSTOP phosphatase inhibitors (Roche) and incubated for 20 min on ice, followed by centrifugation of cell debris for 15 min at 4° C. 16 100 g. In mean time, inhibitor molecules containing Propargyl (Pra) chemical group were covalently attached to the azide agarose or azide magnetic resin (Jena Bioscience) by Cu(I)-catalysed azide-alkyne cycloaddition reaction. Specifically, the inhibitor molecules were mixed with azide agarose resin in ratio 0.125 μmol inhibitor/25 μl agarose resin and azide magnetic resin in ratio 0.018 μmol inhibitor/20 μl magnetic resin. The reaction was catalysed by 1 mM CuSO4, 0.1 mM TBTA (Sigma-Aldrich) and 1 mM Sodium ascorbate and was performed on the rotating wheel for 30 min at room temperature in the volume of 1 ml. Subsequently, the resin was washed 5 times with the extraction buffer. The inhibitor-agarose resin was added to 1 mg of HeLa K cell extract and the inhibitor-magnetic resin was added to 0.5 mg of HeLa K cell extract followed by incubation at 4° C. for 2 h. Followed by washing the resin 5 times with the extraction buffer. Pull-down proteins were eluted by boiling for 15 min with 1×LDS sample buffer supplemented with 100 mM DTT (agarose resin) or by incubation with 1×LDS sample buffer for 10 min at room temperature followed by taking supernatant that was supplemented with 100 mM DTT and boiling it for 10 min. Samples were subjected to SDS PAGE and Western blot analysis.
HeLa K cell pellet was re-suspended in the extraction buffer (30 mM HEPES pH 7.5, 175 mM NaCl, 2.5 mM MgCl2, 0.25% NP40, 10% glycerol, 1 mM DTT supplied with complete protease inhibitor cocktail (Roche), PhosSTOP phosphatase inhibitors (Roche), 1 mM PMSF, 10 μM MG132) and incubated for 20 min on ice, followed by centrifugation to clear the lysate for 15 min at 4° C. 16,100 g. In the meantime, inhibitor molecules containing the propargyl-Gly-OH (Pra) chemical group were covalently attached to the azide agarose resin (Jena Bioscience) by Cu(I)-catalysed azide-alkyne cycloaddition reaction. Specifically, the inhibitor molecules were mixed with azide agarose resin in ratio 0.125 μmol inhibitor/20 μl agarose resin. The reaction was catalysed by 0.1 mM CuSO4, 0.5 mM THPTA (Sigma-Aldrich) and 5 mM Sodium ascorbate and was performed on the rotating wheel for 30 min at room temperature in the volume of 1 ml. […]

Test [3] has as its system APC/C. Nature of the test: Ubiquitinated securin (Mean ± SD). To be noted: 100 µM. An excerpt: Table printed on a drawing sheet, Figure 6
Head of the field: Ubiquitinated securin (Mean ± SD)

The test system of another test is A549 cells. As to the kind of experiment: Live cell imaging of A549 cells. The class given is cell-based, human. As to conditions: A549, 50 μM, imaged 24 h. The procedure:
(§2) Automated time-lapse microscopy was performed using ImageXpress Micro XLS wide-field screening microscope (Molecular Devices) equipped with a 10×, 0.5 NA., 20×, 0.7 NA, and 40×, 0.95 NA Plan Apo air objectives (Nikon), a laser-based autofocus and a full environmental control (5% CO2, 37° C.). Cells were grown in 96-well plastic bottom plates (clear, Greiner Bio-One) and for live cell imaging media was changed to imaging media. Imaging media for A549, HeLa K and SW480 was DMEM without phenol red and riboflavin (Thermo Fisher Scientific), supplemented with 10% (v/v) FBS, 1% (v/v) Glutamax, and 1% (v/v) penicillin-streptomycin; imaging media for HT-1080 and RKO was RPMI 1640 without phenol red (Thermo Fisher Scientific), supplemented with 10% (v/v) FBS, and 1% (v/v) penicillin-streptomycin.
(§3) A549 (5000-5500 cells), HeLa K (3000-4000 cells), HT-1080 (4000 cells), RKO (5000 cells), and SW480 (7000-8000 cells) cells were seeded into 96-well plates one day prior to treatment with compounds of the invention. Cells were treated with 50 μM of compound G3_mod1_mini PEG and cell division was monitored by live cell imaging using an ImageXpress Micro XLS wide-field screening microscope and images were acquired every 3 min for time courses of 24 h. The length of mitosis was determined manually.

Another test deals with RKO cells. Nature of the test: Live cell imaging of RKO cells. The class given is cell-based, human. As to conditions: 50 μM, imaged 24 h. As for the experimental part: as §2, §3
Another test has as its system HeLa K cells. Nature of the test: Live cell imaging of HeLa K cells. The class given is cell-based, human. To be noted: 50 μM. As for the experimental part:
Automated time-lapse microscopy was performed using ImageXpress Micro XLS wide-field screening microscope (Molecular Devices) equipped with a 10×, 0.5 NA., 20×, 0.7 NA, and 40×, 0.95 NA Plan Apo air objectives (Nikon), a laser-based autofocus and a full environmental control (5% CO2, 37° C.). Cells were grown in 96-well plastic bottom plates (clear, Greiner Bio-One) and for live cell imaging media was changed to DMEM without phenol red and riboflavin (Thermo Fisher Scientific), supplemented with 10% (v/v) FBS, 1% (v/v) Glutamax, 1% (v/v) penicillin-streptomycin, and 0.5 μg/ml amphotericin B.
HeLa K cells were seeded into 96-well plates (4000-4500 cells) one day prior the treatment with compounds of the invention. Cells were treated with 50 μM of compound G3_mod1_mini PEG and cell division was monitored by live cell imaging using ImageXpress Micro XLS wide-field screening microscope, images were acquired every 3 min for time courses of 48 h. The length of mitosis was determined manually.
as §2, §3

Another test deals with HT-1080 cells. Nature of the test: Live cell imaging of HT-1080 cells. To be noted: HT-1080, 50 μM, imaged 24 h. In kind it is cell-based, human. The procedure:
as §2, §3

Another test concerns SW480 cells. Nature of the test: Live cell imaging of SW480 cells. In kind it is cell-based, human. To be noted: SW480, 50 μM, imaged 24 h. The procedure:
as §2, §3

`CC[C@H](C)[C@@H]1NC(=O)[C@H](CCC(=O)O)NC(=O)[C@H](CCCCN)NC(=O)[C@H]([C@@H](C)CC)NC(=O)[C@](C)(NC(=O)[C@H](Cc2c[nH]c3ccccc23)NC(=O)[C@H](Cc2c[nH]c3ccccc23)NC(=O)[C@H](CCC(=O)O)NC(C)=O)CCCCCCC=CCCC[C@@](C)(C(=O)N[C@@H](CCCNC(=N)N)C(=O)N[C@@H](CCCNC(=N)N)C(=O)N[C@@H](C)C(N)=O)NC(=O)[C@H](CCCNC(=N)N)NC(=O)[C@H](CCC(N)=O)NC1=O` [G3-6, Ac-cyclo(4,11)-EWWZIKEIQRXRRA-NH2] (Ac-EWW[R8]IKEIQR[S5]RRA-NH2; staple 4-11): the “inhibition of APC/C activity driven by different E2 enzymes” value on APC/C [1] is on record as “inhibits APC/C in vitro independently on employed E2 enzymes”. Besides, at APC/C [2] (3 μM G3-6, securin titration, unpaired t test p=0.0886), the “difference between KM without and with inhibitor” value is recorded as “not significant”. For the same compound, the “inhibition of APC/C activity in vitro compared with TAME” value against APC/C [2] (100 μM, UBE2C, reaction time 45 min, 3 independent assays) is listed as “inhibit APC/C in vitro more efficiently than TAME”. The “inhibition of APC/C activity in vitro, titration” value on APC/C [2] (25, 50, 75 and 100 μM, UBE2C, reaction time 45 min) is listed as “inhibits APC/C in vitro the most potently”. This compound yielded an IC50 against APC/C [2] (UBE2C, 0.01-100 μM, reaction time 10 min, methylated ubiquitin, ubiquitinated securin, 4 independent experiments) of 1.96 µM. Further, at APC/C [2] (model for non-competitive inhibition in Prism 6.0, 3 μM inhibitor, securin 50-5000 nM, reaction time 2 min, read-out: inhibitory constant (Ki)), the Ki worked out at 5 µM. Also, at APC/C [2] (titration of substrate (securin)), the “mechanism of action (type of the inhibition)” value was “non-competitive inhibitor”. In addition, the “IC50 (in words)” value at APC/C [2] (titration of the G3-6 molecule) was “low micromolar range”. For the same compound, the “binding to the APC/C (pull-down)” value at APC/C (APC11) was “binds specifically to the APC/C”. Further, the “Ubiquitinated securin (Mean ± SD)” value in the test on APC/C [3] stood at 3.6 ± 5%.

In the case of “Ac-GFWFG-NH(CH2)2OCH2CO-cyclo(4,11)-EWWZIKEIQRXRRA-NH2 ({Ac-Gly-Phe-Trp-Phe-Gly-miniPEG}-EWW[R8]IKEIQR[S5]RRA-NH2; staple 4-11) [G3-6_mod1_miniPEG]”, the “effect on mitosis (length of mitosis)” value in the test on A549 cells is “prolongs mitosis”; with RKO cells it was “prolongs mitosis”; in the test on HeLa K cells (imaged 24 h) it was “prolongs mitosis”; in the test on HeLa K cells (imaged 48 h) it was “prolongs mitosis by arresting cells in metaphase; also recorded: induces a metaphase delay”; in the test with HT-1080 cells, “prolongs mitosis”; in the test with SW480 cells it was “prolongs mitosis”. For the same compound, the “cell fate (cell death)” value in the test with HeLa K cells (imaged 24 h) is “cause cell death after a metaphase arrest in a subpopulation”; in the test on HeLa K cells (imaged 48 h), “causes cell death after metaphase”; with HT-1080 cells, “cause cell death after a metaphase arrest in a subpopulation”; in the test with SW480 cells it was “cause cell death after a metaphase arrest in a subpopulation”.
